Key:
[1] = tested on: MBL-producing P. aeruginosa clinical isolates; assay: Broth microdilution checkerboard synergy assay (MIC of ATM in combination); type: cell-based, Pseudomonas aeruginosa
[2] = biological target: T1, AmpC (Escherichia coli, UniProt P00811); assay: β-lactamase inhibition, nitrocefin hydrolysis; type: biochemical
T1 construct: made in house
Excerpt: (§1) Recombinant AmpC from Escherichia coli was produced according to a previously reported protocol. KPC-2 and NDM-1 […] were purchased from LifeSpan Biosciences, Inc. (Lynnwood, WA, USA) (LS-G26598) and RayBiotech, Inc. (Peachtree Corners, GA, USA) (230-00554), respectively. Genes encoding OXA-48 (residues 23–265) and VIM-2 (residues 27–266) were custom-synthesized (Bioneer Inc., Seoul, Republic of Korea) and expressed as previously described. The β-lactamase inhibitory activity of the title compounds was then determined according to the previously reported methods. Briefly, equal volumes (100 μL) of the title compounds (70–0.1 μM in PBS) and diluted enzyme stock were mixed (final concentration 2% of DMSO in 200 μL) in 96-well plates, which were then incubated at 37 °C for 20 min. The incubated mixture was added to each well containing substrates (nitrocefin for AmpC, KPC-2, OXA-48, and VIM-2; and imipenem for NDM-1) of final concentrations of 70 μM for nitrocefin and 100 μM for imipenem. Substrate hydrolysis was monitored at 486 nm (nitrocefin) or 300 nm (imipenem) for 15 min, using a Cytation 5 imaging multimode reader (BioTek Instruments Inc., Winooski, VT, USA). At the plateau level of hydrolysis, the corresponding rates of hydrolysis were compared to those obtained without inhibitors (100%) to determine the percentage of enzyme inhibition at each concentration of the title compounds. The IC50 values of the compounds were derived from sigmoidal dose–response curves, using GraphPad Prism 5 (GraphPad Software, Boston, MA, USA).

[3] = biological target: T2, KPC-2 (Klebsiella pneumoniae, UniProt Q9F663); assay: β-lactamase inhibition, nitrocefin hydrolysis; type: biochemical; conditions: nitrocefin substrate; read-out: β-Lactamases, IC50 KPC-2
T2 construct: purchased LifeSpan Biosciences, Inc. LS-G26598
T2 sequence (Q9F663 25-293, looked up): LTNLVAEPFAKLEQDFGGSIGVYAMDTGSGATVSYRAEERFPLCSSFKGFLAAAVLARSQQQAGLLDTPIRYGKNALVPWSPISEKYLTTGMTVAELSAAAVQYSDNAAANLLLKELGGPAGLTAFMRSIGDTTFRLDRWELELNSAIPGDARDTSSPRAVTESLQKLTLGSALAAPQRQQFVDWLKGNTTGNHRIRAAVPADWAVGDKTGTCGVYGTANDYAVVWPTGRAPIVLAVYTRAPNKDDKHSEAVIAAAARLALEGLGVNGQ
Excerpt: as §1

[4] = biological target: T3, OXA-48 (Klebsiella pneumoniae, UniProt Q6XEC0); assay: β-lactamase inhibition, nitrocefin hydrolysis; type: biochemical; conditions: nitrocefin substrate; read-out: β-Lactamases, IC50 OXA-48
T3 construct: Genes encoding OXA-48 (residues 23–265) and VIM-2 (residues 27–266) were custom-synthesized; made in house
T3 sequence (Q6XEC0 23-265 limits assumed): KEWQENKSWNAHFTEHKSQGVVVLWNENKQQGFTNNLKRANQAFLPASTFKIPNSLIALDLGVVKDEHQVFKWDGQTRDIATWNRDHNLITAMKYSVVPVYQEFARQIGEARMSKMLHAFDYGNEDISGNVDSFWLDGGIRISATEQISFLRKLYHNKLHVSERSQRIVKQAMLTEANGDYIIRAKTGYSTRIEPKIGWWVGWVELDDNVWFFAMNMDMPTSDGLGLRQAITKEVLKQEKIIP
Excerpt: as §1

[5] = biological target: T4, VIM-2 (Escherichia coli, UniProt Q5U7L7); assay: β-lactamase inhibition, nitrocefin hydrolysis; type: biochemical; conditions: nitrocefin substrate; read-out: β-Lactamases, IC50 VIM-2
T4 construct: Genes encoding OXA-48 (residues 23–265) and VIM-2 (residues 27–266) were custom-synthesized; made in house
Excerpt: as §1

[6] = biological target: T5, NDM-1 (Klebsiella pneumoniae, UniProt C7C422); assay: β-lactamase inhibition, imipenem hydrolysis; type: biochemical; conditions: imipenem substrate; read-out: β-Lactamases, IC50 NDM-1
T5 construct: purchased RayBiotech, Inc. 230-00554
T5 sequence (C7C422 29-270, looked up, species assumed): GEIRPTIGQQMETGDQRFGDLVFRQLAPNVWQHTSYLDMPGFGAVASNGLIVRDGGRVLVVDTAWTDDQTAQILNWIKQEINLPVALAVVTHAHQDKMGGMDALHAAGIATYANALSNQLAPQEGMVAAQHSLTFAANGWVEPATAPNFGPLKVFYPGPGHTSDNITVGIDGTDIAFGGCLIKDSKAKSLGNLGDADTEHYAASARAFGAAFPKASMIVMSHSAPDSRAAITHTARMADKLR
Excerpt: as §1

[7] = tested on: efflux pump of PA-038blaNDM; assay: Inhibition of efflux pumps: EtBr accumulation/efflux; type: cell-based, Pseudomonas aeruginosa; conditions: 8 mg/L of compound
Protocol: The accumulation of EtBr inside the NDM-producing (PA-038blaNDM) P. aeruginosa clinical isolates was monitored as previously described. Briefly, the P. aeruginosa strain was grown in 5 mL of LB medium until it reached the mid-log phase, and the bacteria were centrifuged at 3500 rpm for 15 min. The resulting pellet was washed twice with an equal volume of PBS. The concentration of the bacterial suspension was adjusted (OD600 = 0.3) and added to each well of a flat-bottomed 96-well black plate ([…]). After the addition of glucose (4 µL) to the cellular suspension at a final concentration of 0.4% (w/v), 4 µL of the title compound or positive control CCCP was added to the plate. Finally, EtBr (10 µL) was also added to each well at a final concentration of 1 µg/mL, and the plate was incubated at 37 °C for 60 min, during which time fluorescence emission from EtBr was recorded (λex 480 nm/λem 630 nm) with a 2-min interval, using a Cytation 5 imaging multi-mode reader (BioTek Instruments, Inc., Winooski, VT, USA).

[8] = tested on: ESBLs; design: method as in PMID 32843653; conditions: cited from earlier work
[9] = tested on: human liver (HepG2) cell line; assay: HepG2 cell viability; type: cell-based; conditions: up to 64 mg/L, 24 h exposure
Protocol: Concentration of 27 (mg/L)
Figure S1. Cell viability of human hepatoma HepG2 cells presented as percentage of
control after 24 h exposure to different concentrations of 27. The data represent the
average values of three experiments (± SD).

T1 sequence (P00811 20-377): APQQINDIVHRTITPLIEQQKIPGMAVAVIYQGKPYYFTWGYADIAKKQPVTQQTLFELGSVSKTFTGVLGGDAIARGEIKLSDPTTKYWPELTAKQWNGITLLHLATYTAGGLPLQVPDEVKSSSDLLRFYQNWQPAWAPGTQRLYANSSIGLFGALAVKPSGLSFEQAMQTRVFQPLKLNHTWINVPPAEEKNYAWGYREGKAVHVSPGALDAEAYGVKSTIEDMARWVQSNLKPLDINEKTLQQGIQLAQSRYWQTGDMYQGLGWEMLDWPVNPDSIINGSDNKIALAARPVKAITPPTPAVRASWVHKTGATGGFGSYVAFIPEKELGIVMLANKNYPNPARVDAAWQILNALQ

SMILES	concentration at which ATM-potentiating activity was observed ([1]; four representative MBL-producing P. aeruginosa strains (Table 2)) [mg/L]	IC50 [2] [µM]	IC50 [3] [µM]	IC50 [4] [µM]	IC50 [5] [µM]	IC50 [6] [µM]	EtBr fluorescence (accumulation) [7]	inhibition of ESBLs [8]	strains with more than a four-fold MIC reduction (synergistic effect) of ATM ([1]; 21 MBL-producing P. aeruginosa clinical strains, combination with ATM)	MIC ([1]; Pseudomonas aeruginosa, MBL-producing P. aeruginosa clinical isolates, no activity up to this concentration, read-out: antimicrobial activity (MIC) of the compound alone) [µg/mL]	cytotoxic effects [9]
O=c1c(O)c(-c2ccc(F)c(F)c2)oc2cc(O)cc(O)c12 [Compound 1, 3′,4′-difluoroquercetin]	8 to 16	> 50	> 50	> 100	> 100	> 50	as potent as CCCP	not to inhibit ESBLs	–	–	–
CC(C)(C)CCOc1c(-c2ccc(F)c(F)c2)oc2cc(O)cc(O)c2c1=O [Compound 23]	–	18.9	17.3	14.8	11.9	11.4	significant increase in EtBr accumulation	–	–	–	–
O=c1c(OCCC2CCCC2)c(-c2ccc(F)c(F)c2)oc2cc(O)cc(O)c12 [Compound 26]	–	21	11.5	8	9	15.9	significant increase in EtBr accumulation	–	–	–	–
N#CC(C#N)=NNc1cccc(Cl)c1 [CCCP, carbonyl cyanide 3-chlorophenylhydrazone]	–	–	–	–	–	–	became stronger	–	–	–	–
O=c1c(OCCC2CCCCC2)c(-c2ccc(F)c(F)c2)oc2cc(O)cc(O)c12 [Compound 27]	–	15.3	11.3	6.3	4.4	10.1	significant increase in EtBr accumulation	–	19 out of 21	> 512	no cytotoxic effects

Reference: article PMC10892423 (Pharmaceutics, 2024)
